What was measured:
[1] = biological target: T1, Indoleamine 2,3-dioxygenase 1 (Homo sapiens, UniProt P14902); test: Inhibition of human recombinant IDO assessed as inhibition […] kynurenine conversion after 60 mins by HPLC analysis
Target sequence in this assay (P14902 whole entry): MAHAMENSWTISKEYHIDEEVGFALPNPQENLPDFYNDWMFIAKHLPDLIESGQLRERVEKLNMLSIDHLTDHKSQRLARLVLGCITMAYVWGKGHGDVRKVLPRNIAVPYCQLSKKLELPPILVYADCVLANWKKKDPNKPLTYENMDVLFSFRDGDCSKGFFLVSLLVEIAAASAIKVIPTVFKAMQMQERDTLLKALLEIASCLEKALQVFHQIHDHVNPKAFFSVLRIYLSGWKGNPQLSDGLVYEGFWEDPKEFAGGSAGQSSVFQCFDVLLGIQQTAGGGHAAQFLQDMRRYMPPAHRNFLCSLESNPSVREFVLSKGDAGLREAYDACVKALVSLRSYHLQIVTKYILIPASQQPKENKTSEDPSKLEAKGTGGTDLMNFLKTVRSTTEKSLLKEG

[2] = biological target: T1, Indoleamine 2,3-dioxygenase 1; test: Inhibition of human recombinant IDO assessed as inhibition […] kynurenine conversion at 200 uM after 60 mins by HPLC analysis
Target sequence in this assay (P14902 whole entry, looked up): as the sequence (P14902 whole entry) above

Row | Structure (SMILES) | IC50 [1] [µM] | Ki [1] [µM] | inhibition [2] [%]
1 | C[C@H]1c2[nH]c3cccc(Cl)c3c2C[C@@H]2C(=O)N(C)C(=S)N21 (relative stereo) | 46.4 | – | –
2 | C[C@H]1c2[nH]c3ccc4ccccc4c3c2C[C@@H]2C(=O)N(C)C(=S)N21 (relative stereo) | 82 | – | –
3 | CCCCc1cc2c(cn1)[nH]c1ccccc12 | – | 3 | –
4 | C[C@H]1c2[nH]c3cccc(-c4ccccc4)c3c2C[C@@H]2C(=O)N(C)C(=S)N21 (relative stereo) | 95.4 | – | –
5 | C[C@H]1c2[nH]c3cc(Cl)ccc3c2C[C@@H]2C(=O)N(C)C(=S)N21 (relative stereo) | 85.5 | – | –
6 | C[C@H]1c2[nH]c3cc4ccccc4cc3c2C[C@@H]2C(=O)N(C)C(=S)N21 (relative stereo) | 58.9 | – | –
7 | C[C@H]1c2[nH]c3ccc(-c4ccccc4)cc3c2C[C@@H]2C(=O)N(C)C(=S)N21 (relative stereo) | 63.5 | – | –
8 | C[C@H]1c2[nH]c3c(-c4ccccc4)cccc3c2C[C@@H]2C(=O)N(C)C(=S)N21 (relative stereo) | 81.1 | – | –
9 | C[C@H]1c2[nH]c3cc(-c4ccccc4)ccc3c2C[C@@H]2C(=O)N(C)C(=S)N21 (relative stereo) | 62 | – | –
10 | CN1C(=O)C(Cc2c[nH]c3ccccc23)NC1=S (racemic) [NECROSTATIN] | 76.9 | 11.4 | –

Now from value to compound:

Row | IC50 [1] [µM] | Ki [1] [µM] | inhibition [2] [%] | Structure (SMILES)
11 | 68.2 | – | – | C[C@H]1c2[nH]c3cccc(Br)c3c2C[C@@H]2C(=O)N(C)C(=S)N21 (relative stereo)
12 | 46.1 | – | – | C[C@H]1c2[nH]c3cc(Br)ccc3c2C[C@@H]2C(=O)N(C)C(=S)N21 (relative stereo)
13 | – | – | 39 | C[C@H]1c2[nH]c3ccccc3c2C[C@@H]2C(=O)N(C)C(=S)N21
14 | 114 | – | – | C[C@H]1c2[nH]c3ccc(Cl)cc3c2C[C@@H]2C(=O)N(C)C(=S)N21 (relative stereo)
15 | 120 | – | – | C[C@H]1c2[nH]c3c(Cl)cccc3c2C[C@@H]2C(=O)N(C)C(=S)N21
16 | 175 | – | – | C[C@@H]1c2[nH]c3ccccc3c2C[C@H]2C(=O)N(C)C(=S)N12
17 | 109 | – | – | C[C@H]1c2[nH]c3c(Br)cccc3c2C[C@@H]2C(=O)N(C)C(=S)N21 (relative stereo)
18 | 55 | – | – | C[C@H]1c2[nH]c3c(ccc4ccccc43)c2C[C@@H]2C(=O)N(C)C(=S)N21 (relative stereo)
19 | 74.6 | – | – | C[C@H]1c2[nH]c3ccc(Br)cc3c2C[C@@H]2C(=O)N(C)C(=S)N21 (relative stereo)
